Consider 39 substances from patent publication US20040014047A1, “Antisense modulation of LIM domain kinase 1 expression” (Isis Pharmaceuticals Inc., priority 2002, published 2004).

Strand notation (5' to 3'): a small letter for the sugar, then the base; units joined by * are phosphorothioate-linked, units joined directly phosphodiester-linked; [ ] holds rarer units or linkages, { } end groups; capitals alone tell only the bases. e = 2'-O-(2-methoxyethyl) (MOE); [5mC] = 5-methylcytosine; d = 2'-deoxy (DNA)

This data set has as its system human LIM domain kinase 1 mRNA. Put plainly: Antisense inhibition of human LIM domain kinase 1 mRNA levels, quantitative real-time PCR, A549 cells (screen). The settings on record: quantitative real-time PCR, averages from two experiments, screening concentration not given (50 nM to 300 nM used herein). In kind it is cell-based. As to the method: When cells reached 70% confluency, they were treated with oligonucleotide. […] Cells were harvested 16-24 hours after oligonucleotide treatment.
Vacuum was applied for 1 minute.
PCR reagents were obtained from Invitrogen Corporation, (Carlsbad, Calif.).
Total RNA is quantified using RiboGreenTM RNA quantification reagent from Molecular Probes.
Probes and primers to human LIM domain kinase 1 were designed to hybridize to a human LIM domain kinase 1 sequence, using published sequence information (GenBank accession number D26309.1, incorporated herein as SEQ ID NO:4). For human LIM domain kinase 1 the PCR primers were: forward primer: […] (SEQ ID NO: 5) reverse primer: […] (SEQ ID NO: 6) and the PCR probe was: FAM-[…]-TAMRA (SEQ ID NO: 7) where FAM is the fluorescent dye and TAMRA is the quencher dye.
All cytidine residues are 5-methylcytidines. […] Data are averages from two experiments in which A549 cells were treated with the oligonucleotides of the present invention. […] If present, “N.D.” indicates “no data”.
In general terms: Real-time PCR tracks product formation cycle by cycle.
On to “206177 (antisense eA*eG*e[5mC]*eT*eT*dG*dG*dA*dG*dT*dG*d[5mC]*dT*d[5mC]*d[5mC]*eA*e[5mC]*e[5mC]*eA*eG) [compound 206177]”, for which the “% INHIB (inhibition of human LIM domain kinase 1 mRNA levels)” value (from here on “% INHIB”) worked out at 86%. The result for “206178 (antisense eA*eG*eT*eA*e[5mC]*dA*dG*d[5mC]*dT*dT*dG*dG*dA*dG*dT*eG*e[5mC]*eT*e[5mC]*e[5mC]) [compound 206178]” reads 69%; that for “206179 (antisense eG*e[5mC]*eA*eG*eT*dG*d[5mC]*d[5mC]*d[5mC]*dG*d[5mC]*dA*dG*dT*dA*e[5mC]*eA*eG*e[5mC]*eT) [compound 206179]”, 75%; that for “206180 (antisense eA*e[5mC]*eA*eT*e[5mC]*dT*dG*dG*dG*d[5mC]*dT*d[5mC]*dA*dT*dG*e[5mC]*eA*eG*e[5mC]*e[5mC]) [compound 206180]”, 77%. The result for “206181 (antisense eT*e[5mC]*eT*eT*e[5mC]*dA*d[5mC]*dA*dT*d[5mC]*dT*dG*dG*dG*d[5mC]*eT*e[5mC]*eA*eT*eG) [compound 206181]” reads 54%. The figure for “206182 (antisense eG*eG*eA*eA*eT*dT*d[5mC]*dT*dT*d[5mC]*dA*d[5mC]*dA*dT*d[5mC]*eT*eG*eG*eG*e[5mC]) [compound 206182]” is 86%; for “206183 (antisense eT*eG*eG*eA*eT*dG*dG*dA*dA*dT*dT*d[5mC]*dT*dT*d[5mC]*eA*e[5mC]*eA*eT*e[5mC]) [compound 206183]” it is 79%; for “206184 (antisense eA*eT*eT*eT*e[5mC]*d[5mC]*dA*dA*dG*dA*dT*d[5mC]*d[5mC]*dG*dG*eT*e[5mC]*eT*e[5mC]*e[5mC]) [compound 206184]” it is 74%. Regarding “206185 (antisense eG*e[5mC]*e[5mC]*eA*eT*dT*dG*dA*dT*dT*dT*d[5mC]*d[5mC]*dA*dA*eG*eA*eT*e[5mC]*e[5mC]) [compound 206185]”, the “% INHIB” value is given as 86%. “206186 (antisense eG*eG*e[5mC]*eG*eT*dG*d[5mC]*d[5mC]*dA*dT*dT*dG*dA*dT*dT*eT*e[5mC]*e[5mC]*eA*eA) [compound 206186]”: the “% INHIB” value came to 72%. The result for “206187 (antisense eT*e[5mC]*eA*eG*e[5mC]*dT*dG*dG*dA*dG*d[5mC]*dA*dG*dG*d[5mC]*eG*eG*e[5mC]*eT*eG) [compound 206187]” reads 60%; that for “206188 (antisense eT*e[5mC]*eG*eA*eG*dG*dG*dT*d[5mC]*dA*dG*d[5mC]*dT*dG*dG*eA*eG*e[5mC]*eA*eG) [compound 206188]”, 71%. The figure for “206189 (antisense eG*eT*eT*eT*e[5mC]*dT*dG*d[5mC]*d[5mC]*dG*dG*dG*d[5mC]*dA*dG*eA*eG*e[5mC]*eT*eG) [compound 206189]” is 81%. For the substance “206190 (antisense eG*eA*e[5mC]*eA*eG*dG*dT*dT*dT*d[5mC]*dT*dG*d[5mC]*d[5mC]*dG*eG*eG*e[5mC]*eA*eG) [compound 206190]”, the “% INHIB” value was determined as 88%. The result for “206191 (antisense e[5mC]*eT*e[5mC]*eA*eA*dG*dA*d[5mC]*dA*dG*dG*dT*dT*dT*d[5mC]*eT*eG*e[5mC]*e[5mC]*eG) [compound 206191]” reads 62%; that for “206192 (antisense eA*eG*e[5mC]*eT*e[5mC]*d[5mC]*dT*d[5mC]*dA*dA*dG*dA*d[5mC]*dA*dG*eG*eT*eT*eT*e[5mC]) [compound 206192]”, 54%. The result for “206193 (antisense eA*eG*eG*eT*e[5mC]*d[5mC]*dT*dT*dG*d[5mC]*dG*d[5mC]*dT*dG*dG*eG*eA*eG*eG*e[5mC]) [compound 206193]” reads 67%; that for “206194 (antisense eG*eA*e[5mC]*e[5mC]*e[5mC]*dA*dG*dG*dT*d[5mC]*d[5mC]*dT*dT*dG*d[5mC]*eG*e[5mC]*eT*eG*eG) [compound 206194]”, 41%. The figure for “206195 (antisense eT*e[5mC]*eA*e[5mC]*eG*dG*dT*dG*dT*dG*dT*d[5mC]*dA*d[5mC]*d[5mC]*eT*eT*eG*eA*eT) [compound 206195]” is 73%. Take “206196 (antisense eA*e[5mC]*e[5mC]*eT*eT*d[5mC]*dA*d[5mC]*d[5mC]*dT*d[5mC]*d[5mC]*dT*dT*dG*eA*eG*eG*eA*eA) [compound 206196]”: the “% INHIB” value is reported as 47%. As for “206197 (antisense eG*e[5mC]*eA*eT*e[5mC]*dG*d[5mC]*dA*dT*dG*dA*d[5mC]*d[5mC]*dT*dT*e[5mC]*eA*e[5mC]*e[5mC]*eT) [compound 206197]”, the “% INHIB” value is 71%. The figure for “206198 (antisense eT*e[5mC]*e[5mC]*eA*eG*dG*d[5mC]*dA*dT*d[5mC]*dG*d[5mC]*dA*dT*dG*eA*e[5mC]*e[5mC]*eT*eT) [compound 206198]” is 86%; for “206199 (antisense eT*eG*eT*e[5mC]*e[5mC]*dA*dT*dG*d[5mC]*dT*d[5mC]*dT*dT*dG*dA*eT*eG*eA*eT*eG) [compound 206199]” it is 68%. The result for “206200 (antisense e[5mC]*eT*eG*eG*e[5mC]*dT*dG*dT*d[5mC]*d[5mC]*dA*dT*dG*d[5mC]*dT*e[5mC]*eT*eT*eG*eA) [compound 206200]” reads 76%; that for “206201 (antisense eA*eG*eG*eT*eA*dG*dG*d[5mC]*d[5mC]*dA*dT*d[5mC]*d[5mC]*d[5mC]*dT*eG*eA*eT*eG*e[5mC]) [compound 206201]”, 74%.

With “206202 (antisense eG*eT*e[5mC]*eT*e[5mC]*dG*dG*dT*dG*dG*dA*dT*dG*dA*dT*eG*eT*eT*e[5mC]*eA) [compound 206202]”, the “% INHIB” value is given as 69%. The result for “206203 (antisense eT*eT*eG*eT*eG*dG*dG*dA*dG*dT*dT*dG*dA*dG*dG*eT*e[5mC]*eT*e[5mC]*eG) [compound 206203]” reads 55%; that for “206204 (antisense e[5mC]*eA*eT*eT*e[5mC]*dT*dT*dG*dT*dT*d[5mC]*dT*d[5mC]*dG*d[5mC]*eG*eG*eA*e[5mC]*e[5mC]) [compound 206204]”, 81%.

Turning to “206205 (antisense eA*eA*eA*eG*eG*dA*dT*dG*dG*d[5mC]*d[5mC]*dT*d[5mC]*dT*dT*e[5mC]*eT*e[5mC]*eG*eG) [compound 206205]”, the “% INHIB” value is on record as 74%. The result for “206206 (antisense e[5mC]*eG*e[5mC]*e[5mC]*eG*dG*dT*dA*dG*dG*dT*d[5mC]*dT*d[5mC]*d[5mC]*e[5mC]*eA*eG*eA*eA) [compound 206206]” reads 28%. The result for “206207 (antisense eG*eT*eG*eG*e[5mC]*d[5mC]*d[5mC]*dT*dG*dG*d[5mC]*dT*d[5mC]*dA*dG*eT*e[5mC]*eG*eG*eG) [compound 206207]” reads 80%. For “206208 (antisense e[5mC]*e[5mC]*eA*e[5mC]*e[5mC]*dT*d[5mC]*d[5mC]*d[5mC]*dG*d[5mC]*dG*dG*dA*dG*eG*eA*eA*eT*e[5mC]) [compound 206208]”, the “% INHIB” value amounted to 79%. Take “206209 (antisense e[5mC]*eT*e[5mC]*eT*eG*dG*dG*d[5mC]*d[5mC]*dA*d[5mC]*dG*dG*d[5mC]*dA*eG*eA*eG*eA*eG) [compound 206209]”: the “% INHIB” value was 80%.

As for “206210 (antisense e[5mC]*e[5mC]*eT*e[5mC]*e[5mC]*dA*dG*dG*dG*dA*dG*d[5mC]*dT*dA*dT*eG*eG*eA*e[5mC]*e[5mC]) [compound 206210]”, the “% INHIB” value was determined as 83%. The result for “206211 (antisense eT*e[5mC]*eT*eG*e[5mC]*d[5mC]*d[5mC]*dT*dG*dA*dT*dG*dT*dG*d[5mC]*eG*e[5mC]*e[5mC]*e[5mC]*eT) [compound 206211]” reads 59%; that for “206213 (antisense e[5mC]*e[5mC]*e[5mC]*eT*eG*dA*dG*dG*d[5mC]*dT*dT*dG*dG*dT*dA*e[5mC]*e[5mC]*eT*eG*e[5mC]) [compound 206213]”, 14%. The figure for “206215 (antisense eG*e[5mC]*eA*eG*e[5mC]*dT*dG*d[5mC]*dT*dG*d[5mC]*dT*dG*d[5mC]*dA*eG*e[5mC]*e[5mC]*eG*eT) [compound 206215]” is 75%; for “206216 (antisense eT*e[5mC]*eA*e[5mC]*eA*dG*dT*dT*dT*dT*dA*dA*dT*dA*d[5mC]*eT*eT*e[5mC]*e[5mC]*eT) [compound 206216]” it is 0%; for “206217 (antisense eA*eA*eG*e[5mC]*eT*dT*d[5mC]*dA*d[5mC]*dA*dG*dT*dT*dT*dT*eA*eA*eT*eA*e[5mC]) [compound 206217]” it is 68%.
